In patent publication US20070098732A1, “Immunologic compounds for prevention, protection, prophylaxis or treatment of immunological disorders, infections and cancer” (Universite De Montreal, priority 2003, published 2007):

Test system: EL-4 lymphoma cells
Assay: PDT of EL-4 lymphoma cells with TH9402 and light
Format: cell-based
Experimental: The strain of mice B6SJL was used for the evaluation of PDT to induce immuno-protection. In generation of tumor cell lysates, EL-4 cells (American Type Culture Collection, ATCC Accession # TIB-39) were seeded in flasks at 10^6 cells/ml and exposed to 10 μM TH9402 in serum free DMEM without phenol red medium for 40 minutes, followed by exposure to drug-free medium for 90 minutes, then illuminated with a dose of 10J/cm^2. Treated cells were incubated overnight. After incubation, cells and supernatants were collected and spun down. The resulting supernatant was collected, concentrated by vacuum speed using a molecular sieve (centriplus 3000 molecular weight cut-off), and stored frozen at −70° C. until use.

Br.COC(=O)c1ccccc1-c1c2ccc(=N)c(Br)c-2oc2c(Br)c(N)ccc12 [TH9402, 2′-(6-amino-4,5-dibromo-3-imino-3H-xanthen-9-yl)-benzoic acid methyl ester hydrobromide]
cell death of EL-4 lymphoma cells undergoing PDT: rapidly proceed to programmed cell death, apoptosis and/or necrosis
